{"source": "patent US8883203B2", "about": "“Solid oral dosage form containing an enhancer” (Merrion Research III Limited, priority 2006, dated 2014)", "key": {"[1]": {"conditions": "cited from earlier work"}, "Caco-2 monolayers": {"tested_on": "Caco-2 monolayers", "assay": "TEER of Caco-2 monolayers with MCFA sodium salts", "format": "cell-based", "conditions": "sodium salts with 3H-TRH, over 2 hours, concentrations of Table 1", "protocol": "Cell Culture: Caco-2 cells were cultured in Dulbecco's Modified Eagles Medium (DMEM) 4.5 g/L glucose supplemented with 1% (v/v) non-essential amino acids; 10% fetal calf serum and 1% penicillin/streptomycin. […] The cells were grown and expanded in standard tissue culture flasks and were passaged once they attained 100% confluence. The Caco-2 cells were then seeded on polycarbonate filter inserts (Costar; 12 mm diameter, 0.4 μm pore size) at a density of 5×10^5 cells/cm^2 and incubated in six well culture plates with a medium change every second day. Confluent monolayers between day 20 and day 30 seeding on filters and at passages 30-40 were used throughout these studies.\nThe transport experiments were performed in Hank's Balanced Salt Solution (HBSS) containing 25 mM N[2-hydroxyethyl]-piperazine-N′-[2-ethanesulfonic acid] (HEPES) buffer, pH 7.4 at 37° C. Due to variations in solubilities, various concentrations of the different MCFA sodium salts and various apical buffers were used as shown in Table 1. In all cases the basolateral chamber contained regular HBSS+HEPES.\nAfter removing the cell culture medium, the monolayers were placed in wells containing prewarmed HBSS (37° C.); 1 ml apically and 2 ml basolaterally. Monolayers were incubated at 37° C. for 30 mins. Then at time zero, apical HBSS was replaced with the relevant apical test solution containing the radiolabelled compounds with and without the enhancer compound. […] The plates were placed on an orbital shaker in an incubator (37° C.). Transport across the monolayers was followed by basolateral sampling (1 ml) at 30 min. intervals up to 120 mins. At each 30 min. interval each insert was transferred to a new well containing 2 ml fresh prewarmed HBSS. Apical stock radioactivity was determined by taking 10 μl samples at t=0 and t=120 mins. […] Mean values for ^3H-TRH concentrations were calculated for the apical and basolateral solutions at each time point."}, "[2]": {"assay": "Closed loop rat model, intraduodenal TRH with enhancer, serum TRH", "format": "in vivo, Male Wistar rats", "conditions": "500 μg or 1000 μg TRH with 35 mg enhancer, interduodenal bolus", "protocol": "Male Wistar rats (weight range 250 g-350 g) were anaesthetized with ketamine hydrochloride/acepromazine. […] All intraduodenal dose volumes (for samples and control) were 1 ml/kg. The proximal end of the segment was ligated and the loop was sprayed with isotonic saline (37° C.) to provide moisture and then replaced in the abdominal cavity avoiding distension. The incision was closed with surgical clips. A group of animals were administered TRH in PBS (100 μg in 0.2 ml) by subcutaneous injection as a reference."}, "APTT": {"tested_on": "APTT", "assay": "Closed-loop rat segment, intraileal USP heparin with enhancer, APTT response", "format": "in vivo", "conditions": "USP heparin 1000 IU, enhancer 10 and 35 mg", "description": "APTT measurements were taken at various time points."}, "anti-factor Xa activity [3]": {"tested_on": "anti-factor Xa activity", "assay": "Closed-loop rat segment, intraileal USP heparin with enhancer, anti-factor Xa response", "conditions": "USP heparin 1000 IU", "protocol": "The procedure carried out in Example 1(a) above was repeated using USP heparin in place of TRH and dosing intraileally rather than intraduodenally. A mid-line incision was made in the abdomen and the distal end of the ileum located (about 10 cm proximal to the ileo-caecal junction). 7-9 cm of tissue was isolated and the distal end ligated, taking care to avoid damage to surrounding blood vessels. Heparin absorption as indicated by […] (APTT) response was measured by placing a drop of whole blood (freshly sampled from the tail artery) on the test cartridge of Biotrack 512 coagulation monitor. APTT measurements were taken at various time points.\nCitrated blood samples were centrifuged at 3000 rpm for 15 mins. to obtain plasma for anti-factor Xa analysis. […] The control in each case is a solution of the same heparin concentration containing no enhancer."}, "anti-factor Xa activity [4]": {"tested_on": "anti-factor Xa activity", "assay": "Intraduodenal LMWH with enhancers in rats (open loop), anti-factor Xa", "format": "in vivo, Male Wistar rats", "conditions": "1000 IU parnaparin sodium intraduodenally"}, "anti-factor Xa activity [5]": {"tested_on": "anti-factor Xa activity", "assay": "Site of administration of LMWH with sodium caprate in dogs, anti-factor Xa", "format": "in vivo, beagle dogs", "conditions": "45,000 IU LMWH and 0.55 g sodium caprate, oral, intrajejunal, intracolonic", "description": "Four beagle dogs (10-15 Kg) were surgically fitted with catheters to the jejunum and colon respectively. […] 3,200 IU Fluxum™ SC was included in the study as a subcutaneous reference."}}}
{"molecule": "NCCCC(O)(P(=O)(O)O)P(=O)(O)O", "note": "[alendronate, Alendronate monosodium trihydrate]", "values": [{"measurement": "further share of the dose absorbed excreted in the urine", "setting": "[1]; over the next 64 hours", "value": 5, "unit": "%"}, {"measurement": "share of the dose absorbed excreted in the urine", "setting": "[1]; within 8 hours, oral conventional forms", "value": 40, "unit": "%"}]}
{"molecule": "CCCCCCCCCCCC(=O)[O-].[Na+]", "note": "[Batch C12, sodium laurate]", "values": [{"measurement": "effect on TEER (Ωcm^2) compared to the control", "setting": "Caco-2 monolayers", "value": "some cell damage (reduction in TEER)"}]}
{"molecule": "CCCCCCCCCC(=O)[O-].[Na+]", "note": "[NaC10, sodium caprate]", "values": [{"measurement": "serum levels of TRH over the control TRH solution", "setting": "[2]", "value": "significantly increases"}, {"measurement": "heparin absorption by APTT response compared to control heparin solution", "setting": "APTT", "value": "significant increase in absorption"}, {"measurement": "effect on TEER (Ωcm^2) compared to the control", "setting": "Caco-2 monolayers", "value": "minimal reduction in TEER"}, {"measurement": "anti-factor Xa activity relative to control heparin solution", "setting": "anti-factor Xa activity [3]; enhancer 10 mg", "value": "significant increase in anti-factor Xa activity"}, {"measurement": "anti-factor Xa activity relative to control heparin solution", "setting": "anti-factor Xa activity [3]; enhancer 35 mg", "value": "significant increase in anti-factor Xa activity"}]}
{"molecule": "parnaparin sodium [LMWH]", "values": [{"measurement": "systemic delivery of LMWH in the absence of enhancer", "setting": "anti-factor Xa activity [4]", "value": "relatively poor"}, {"measurement": "intestinal absorption of LMWH versus absorption from the stomach", "setting": "anti-factor Xa activity [5]", "value": "considerably higher"}]}
{"molecule": "CCCCCCCCCCCCCC(=O)[O-].[Na+]", "note": "[Batch C14]", "values": [{"measurement": "effect on TEER (Ωcm^2) compared to the control", "setting": "Caco-2 monolayers", "value": "minimal reduction in TEER"}]}
{"molecule": "CCCCCCCC(=O)[O-].[Na+]", "note": "[NaC8, sodium caprylate]", "values": [{"measurement": "serum levels of TRH over the control TRH solution", "setting": "[2]", "value": "significantly increases"}]}
{"molecule": "CCCCCCCCCCCCCCCCCC(=O)[O-].[Na+]", "note": "[Batch C18]", "values": [{"measurement": "effect on TEER (Ωcm^2) compared to the control", "setting": "Caco-2 monolayers", "value": "minimal reduction in TEER"}]}
